For assay [1], the target named is T1, Runt-related transcription factor 1/Core-binding factor subunit beta (Homo sapiens, UniProt Q01196+Q13951). Kind of assay: inhibitors of RUNX1 Runt–CBFb-SMMHC binding, biochemical, TR-FRET (AID 1438). The class given is protein assay. (In general: TR-FRET usually uses a lanthanide donor and a delayed reading to cut background.)
The target in assay [2] is T1, Runt-related transcription factor 1/Core-binding factor subunit beta. As to the kind of experiment: inhibitors of RUNX1 Runt–CBFb-SMMHC binding, primary screen, biochemical, FRET, Cerulean-Runt, Venus-CBFb-SMMHC, uHTS (AID 1434).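 Also: partner is the CBFb-SMMHC leukemia fusion protein rather than wild-type CBFb.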 The class given is protein assay.
In assay [3] the target is Beta-lactamase (Pseudomonas aeruginosa, UniProt Q79MP6).
Another assay deals with Troponin, cardiac muscle (Homo sapiens, UniProt P19429+P45379+P63316). As to the kind of experiment: Fluorescence-based biochemical high throughput dose response assay for activators of the calcium sensitivity of cardiac Regulated Thin Filaments (RTF). [Related pubchem assays (depositor defined):AID493008, AID493018, AID504382, AID504383]. The class given is protein-complex assay.

In another assay the test system is HeLa. As to the kind of experiment: HeLa cell cytotoxicity, dose response, cytotoxicity control, 24 h, cherry-picked samples (AID 504726).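 Also: potency for cytotoxicity as loss of luminescence signal.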 The class given is functional, cell-based. Conditions: Homo sapiens.
The target in the next assay is ORF 73 (Human herpesvirus 8, UniProt O40947). Kind of assay: inhibitors of C-LANA binding to LBS DNA, dose response, biochemical, fluorescence polarization, cherry-picked samples (AID 504725).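 Also: fluorescence polarization of a labeled DNA duplex reporting LANA DNA binding; potency is for inhibitors that block LANA binding to the DNA.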 Also noted: species or system Human gammaherpesvirus 8. For orientation: Fluorescence polarisation rises when a labelled molecule tumbles more slowly, as on binding a larger partner.

In assay [4] the target is Beta-lactamase (Salmonella choleraesuis (strain SC-B67), UniProt Q5J463).
The target of assay [5] is T2, Kappa-type opioid receptor (Homo sapiens, UniProt P41145). Kind of assay: SAR analysis of small molecule antagonists of the kappa opioid receptor via a luminescent beta-arrestin assay - Set 3. [Related pubchem assays (depositor defined):AID1777, AID1778, AID1785, AID1786, AID1966, AID2133, AID2136, AID2285, AID2495]. The class given is functional.
A further assay addresses Mu-type opioid receptor (Homo sapiens, UniProt P35372). As to the kind of experiment: SAR Analysis of Antagonists of the MOR Receptor using an Image-Based Assay - Set 3. [Related pubchem assays (depositor defined):AID1777, AID1785, AID1786, AID1966, AID2133, AID2136, AID2284, AID2285, AID2420]. The class given is functional.
Assay [6] has as its target T2, Kappa-type opioid receptor. As to the kind of experiment: SAR analysis of Antagonists of the Kappa Opioid Receptor (KOR) using an Image-Based Assay - Set 3. [Related pubchem assays (depositor defined):AID1777, AID1785]. The class given is functional.
Assay [7] has as its target Delta-type opioid receptor (Homo sapiens, UniProt P41143). As to the kind of experiment: SAR Analysis of Antagonists of the DOR Receptor using an Image-Based Assay - Set 3. [Related pubchem assays (depositor defined):AID1777, AID1785]. The class given is functional.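 Also: U2OS cells expressing DOR1 and beta-arrestin GFP stimulated with 100 nM SNC80; imaging of GFP-tagged beta-arrestin moving into spots after receptor activation.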
A further assay concerns INS1. As to the kind of experiment: beta cell apoptosis inhibitors, cytokine rescue, dose response, luminescence, retest (AID 449756).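 Also: cell death triggered by IL-1 beta plus TNF-alpha plus IFN-gamma mixture; protective hits raise ATP signal compared with cytokine alone wells.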 The class given is functional, cell-based. The following applies: Rattus norvegicus.
For assay [8], the target named is T3, Sphingosine 1-phosphate receptor 4 (Homo sapiens, UniProt O95977).
T3 sequence (O95977 whole entry): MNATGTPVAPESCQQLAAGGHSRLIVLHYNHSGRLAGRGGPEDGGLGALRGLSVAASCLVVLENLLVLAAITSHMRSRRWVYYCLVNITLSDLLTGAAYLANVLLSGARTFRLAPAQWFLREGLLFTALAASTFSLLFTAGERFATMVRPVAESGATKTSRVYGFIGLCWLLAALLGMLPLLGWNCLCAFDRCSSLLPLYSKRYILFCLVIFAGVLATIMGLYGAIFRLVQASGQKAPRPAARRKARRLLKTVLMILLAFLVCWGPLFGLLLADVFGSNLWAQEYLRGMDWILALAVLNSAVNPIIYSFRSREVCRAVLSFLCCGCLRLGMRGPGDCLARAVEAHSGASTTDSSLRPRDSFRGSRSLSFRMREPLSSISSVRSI
Kind of assay: Fluorescence dose response cell-based high throughput screening assay for antagonists of the Sphingosine 1-Phosphate Receptor 4 (S1P4). [Related pubchem assays: 1524 (Confirmation in triplicates.), 1510 (Primary screen.)]. The class given is functional.

Assay [9] has as its target T4, Replicative DNA helicase DnaB (Mycobacterium tuberculosis, UniProt P9WMR3).
T4 sequence (P9WMR3 whole entry): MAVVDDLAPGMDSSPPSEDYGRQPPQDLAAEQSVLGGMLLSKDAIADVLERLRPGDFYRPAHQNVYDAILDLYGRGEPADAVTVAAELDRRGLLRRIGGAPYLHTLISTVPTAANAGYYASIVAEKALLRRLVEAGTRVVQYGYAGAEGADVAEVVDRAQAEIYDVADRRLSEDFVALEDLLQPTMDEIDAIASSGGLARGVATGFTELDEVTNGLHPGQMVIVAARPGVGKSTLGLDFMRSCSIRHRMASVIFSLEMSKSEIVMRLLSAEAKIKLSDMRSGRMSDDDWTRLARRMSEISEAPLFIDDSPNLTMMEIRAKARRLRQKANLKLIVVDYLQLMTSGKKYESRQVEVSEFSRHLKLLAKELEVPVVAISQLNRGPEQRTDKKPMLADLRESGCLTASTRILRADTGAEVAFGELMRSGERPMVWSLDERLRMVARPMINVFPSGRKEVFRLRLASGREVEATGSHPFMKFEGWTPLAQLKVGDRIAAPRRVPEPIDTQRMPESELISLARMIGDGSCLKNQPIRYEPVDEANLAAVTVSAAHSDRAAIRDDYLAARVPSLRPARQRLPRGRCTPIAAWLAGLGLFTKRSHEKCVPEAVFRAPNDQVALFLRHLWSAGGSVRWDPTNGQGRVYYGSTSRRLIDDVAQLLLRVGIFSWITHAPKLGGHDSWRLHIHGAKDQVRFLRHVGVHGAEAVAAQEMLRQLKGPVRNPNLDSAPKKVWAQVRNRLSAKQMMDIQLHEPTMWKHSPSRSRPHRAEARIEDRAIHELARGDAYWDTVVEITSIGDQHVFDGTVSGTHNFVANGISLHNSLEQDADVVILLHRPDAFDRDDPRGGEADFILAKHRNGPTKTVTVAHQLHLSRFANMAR
Kind of assay: DnaB intein splicing inhibitors, dose response, biochemical, cell-free fluorescence (AID 449749). The class given is functional.

Assay [10] can be described thus: Intein inhibitors as potential Tuberculosis drugs, a cytotoxicity screen. [Related pubchem assays (depositor defined):AID2221, AID2223, AID434968, AID435010, AID449749, AID449750, AID489010]. Format: functional.
The target in another assay is T5, Protein RecA (Mycobacterium tuberculosis, UniProt P9WHJ3).
T5 sequence (P9WHJ3 whole entry): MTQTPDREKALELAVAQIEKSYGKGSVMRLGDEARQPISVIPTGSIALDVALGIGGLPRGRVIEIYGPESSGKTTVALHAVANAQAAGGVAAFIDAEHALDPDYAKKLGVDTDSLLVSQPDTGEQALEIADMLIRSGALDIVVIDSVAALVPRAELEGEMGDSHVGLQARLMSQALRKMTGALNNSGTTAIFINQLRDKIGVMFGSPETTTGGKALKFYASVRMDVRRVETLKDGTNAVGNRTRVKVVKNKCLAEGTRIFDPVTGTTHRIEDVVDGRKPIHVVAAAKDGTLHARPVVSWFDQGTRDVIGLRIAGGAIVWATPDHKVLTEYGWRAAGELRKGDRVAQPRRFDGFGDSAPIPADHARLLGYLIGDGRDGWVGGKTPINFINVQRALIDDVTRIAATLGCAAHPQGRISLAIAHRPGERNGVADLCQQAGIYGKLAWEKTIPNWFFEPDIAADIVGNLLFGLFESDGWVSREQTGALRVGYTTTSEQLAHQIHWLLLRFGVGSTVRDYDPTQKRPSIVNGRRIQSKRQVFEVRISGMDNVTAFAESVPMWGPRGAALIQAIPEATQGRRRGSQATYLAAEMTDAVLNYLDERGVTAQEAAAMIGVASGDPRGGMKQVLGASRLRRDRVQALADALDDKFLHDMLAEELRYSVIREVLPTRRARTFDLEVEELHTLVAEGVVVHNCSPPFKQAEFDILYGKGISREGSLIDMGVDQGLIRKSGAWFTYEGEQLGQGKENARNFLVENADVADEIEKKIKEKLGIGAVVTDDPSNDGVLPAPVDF
As to the kind of experiment: Fluorescence Cell-Free Homogeneous Dose Retest to Identify Inhibitors of RecA-Intein Splicing Activity. [Related pubchem assays (depositor defined):AID2097, AID2223, AID489010, AID492950]. Format: functional.

Assay [11] has as its target Sphingosine 1-phosphate receptor 1 (Homo sapiens, UniProt P21453). The class given is functional.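 Also: Tango beta-arrestin reporter U2OS cells stimulated with S1P near its EC80; inhibitor potency meaning antagonism of receptor activation by the natural agonist.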
For the next assay, the system named is Vero. As to the kind of experiment: host cell cytotoxicity of antiviral hits, dose response, cytotoxicity control for West Nile virus antiviral project, secondary assay (AID 1650). Format: functional. The following applies: Chlorocebus sabaeus.

Four compounds from ChEMBL document CHEMBL1201862, “PubChem BioAssay data set” (2004) can be followed below.

Structures are written as SMILES. Active and inactive are the calls of the source.

The term IC50 denotes the concentration needed to halve the response being measured. Take `COc1cccc(-c2nc(-c3ccc4c(c3)-c3ccccc3S4(=O)=O)c(-c3ccccc3)[nH]2)c1OC`: the IC50 in assay [1] was > 100 µM (inactive); in [2], 33.6 µM (active).
A word on the EC50: it is the midpoint of the concentration-response curve. The AC50 is the midpoint of the concentration-response curve, whichever way the signal moves. In the case of `O=[N+]([O-])c1ccc(N2CCCCCC2)c2nonc12`, the values for the IC50 on Beta-lactamase [3] and on Beta-lactamase [4] were > 59.6 µM (inactive) and 22.4 µM (inactive), respectively. For the same compound, at Troponin, cardiac muscle, the EC50 is 0.413 µM (active). The AC50 with HeLa was 69.4 µM (active); at ORF 73 it was 54.6 µM (active).
For `CCc1ccc(S(=O)(=O)NCc2ccc(C(=O)NCCN(C)[C@@H](C)c3ccccc3)cc2)cc1`, the IC50 is 3.75 µM (active) in assay [5], > 32 µM (inactive) at Mu-type opioid receptor, 0.749 µM (active) in assay [6] and > 32 µM (inactive) in [7].
By CC50 is commonly meant the concentration that lowers cell viability or growth by half. On to `Cc1c(/C=N/Nc2nc3ccccc3[nH]2)c2ccccc2n1C`, for which the AC50 is 4.83 µM (active) in the assay on INS1 and 3.82 µM (active) in assay [9]. Besides, the results for the IC50 in assay [8] and in [11] were 1.76 µM (active) and 6.78 µM (active), respectively. In addition, the CC50 is 18.1 µM (active) in assay [10] and 39.2 µM (active) in the assay on Vero. In addition, the EC50 at Protein RecA was 1.99 µM (active).
